Read-outs that look alike come from different tables or passages of the source.
Legend:
prion protein (PrP) [1] = molecular target: T1, prion protein (PrP) (Mesocricetus auratus, UniProt P04273); assay: biochemical
T1 construct: gene PRNP

prion protein (PrP) [2] = molecular target: T1, prion protein (PrP); assay: biochemical; remark: listed apart in the source

T1 sequence (P04273 90-231 limits assumed): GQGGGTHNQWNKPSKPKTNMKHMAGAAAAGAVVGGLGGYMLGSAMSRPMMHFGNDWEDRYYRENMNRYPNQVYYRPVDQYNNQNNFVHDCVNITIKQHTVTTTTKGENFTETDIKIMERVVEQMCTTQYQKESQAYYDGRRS

`O=C(/C=C/c1ccc(O)c(O)c1)O[C@@H]1C[C@](O)(C(=O)O)C[C@@H](O)[C@H]1O` [CA, chlorogenic acid] gave an IC50 (prion protein (PrP) [1]) of 64.4 ± 12.1 µM.

With `O=C(O[C@@H]1Cc2c(O)cc(O)cc2O[C@@H]1c1cc(O)c(O)c(O)c1)c1cc(O)c(O)c(O)c1` [EGCG, epigallocatechin gallate] the IC50 (prion protein (PrP) [2]) was 2.84 ± 0.97 µM.

`O=C(/C=C/c1ccc(O)c(O)c1)O[C@@H]1C[C@@](O)(C(=O)O)C[C@@H](O)[C@@H]1O` [NCA, neochlorogenic acid] was tested, and the IC50 (prion protein (PrP) [1]) was 35.3 ± 7.09 µM.
